From PubChem BioAssay AID248 (DTP/NCI, 2004) come the findings set out here.

Where “and” joins values, the source holds several entries; their conditions need not be identical. Equal entries are not always repeated. Inconclusive results and toxic doses are left out.

This assay has as its system L1210 leukemia ip in BDF1 mice, survival T/C. Description: NCI In Vivo Anticancer Drug Screen. Data for tumor model L1210 Leukemia (intraperitoneal) in B6D2F1 (BDF1) mice. Conditions: endpoint: mean survival time, higher = longer survival. The method in brief: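 In this screen, tumor-bearing mice given compound are compared to those given vehicle, and their survival values are reported as a treated-to-control quotient.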

[1] abbreviates: dose: 100.0 mg/kg/injection, schedule: Q01DX001 (ip), vehicle: Klucel (hydroxypropylcellulose) (HPC).
Where [2] appears, read: dose: 200.0 mg/kg/injection, schedule: Q01DX001 (ip), vehicle: Klucel (hydroxypropylcellulose) (HPC).
The mark [3] stands for this setting: dose: 400.0 mg/kg/injection, schedule: Q01DX001 (ip), vehicle: Klucel (hydroxypropylcellulose) (HPC).
Where [4] appears, read: dose: 25.0 mg/kg/injection, schedule: Q01DX001 (ip), vehicle: Klucel (hydroxypropylcellulose) (HPC).
[5] abbreviates: dose: 200.0 mg/kg/injection, schedule: Q04DX002 (ip), vehicle: saline with Tween-80.
Where [6] appears, read: dose: 100.0 mg/kg/injection, schedule: Q04DX002 (ip), vehicle: Klucel (hydroxypropylcellulose) (HPC).
Setting [7] is: dose: 200.0 mg/kg/injection, schedule: Q04DX002 (ip), vehicle: Klucel (hydroxypropylcellulose) (HPC).
The mark [8] stands for this setting: dose: 400.0 mg/kg/injection, schedule: Q04DX002 (ip), vehicle: Klucel (hydroxypropylcellulose) (HPC).
The mark [9] stands for this setting: dose: 100.0 mg/kg/injection, schedule: Q01DX009 (ip), vehicle: Klucel (hydroxypropylcellulose) (HPC).
The mark [10] stands for this setting: dose: 200.0 mg/kg/injection, schedule: Q01DX009 (ip), vehicle: Klucel (hydroxypropylcellulose) (HPC).
[11] abbreviates: dose: 100.0 mg/kg/injection, schedule: Q01DX009 (ip), vehicle: saline with Tween-80.
Where [12] appears, read: dose: 200.0 mg/kg/injection, schedule: Q01DX009 (ip), vehicle: saline with Tween-80.
Setting [13] is: dose: 400.0 mg/kg/injection, schedule: Q01DX009 (ip), vehicle: saline with Tween-80.
Where [14] appears, read: dose: 50.0 mg/kg/injection, schedule: Q01DX001 (ip), vehicle: saline.
The mark [15] stands for this setting: dose: 100.0 mg/kg/injection, schedule: Q01DX001 (ip), vehicle: saline.

On to `CN(CCCN1C(=O)c2ccccc2C1=O)c1ccc(NS(=O)(=O)c2ccc([N+](=O)[O-])cc2)cc1`, for which the T/C is, setting by setting: under setting [1], 100 % of control; under setting [2], 103 % of control; under setting [3], 97 % of control.
On to `O=C(C=P(c1ccccc1)(c1ccccc1)c1ccccc1)CCl`, for which the T/C is, setting by setting: (dose: 6.25 mg/kg/injection, schedule: Q01DX001 (ip), vehicle: Klucel (hydroxypropylcellulose) (HPC)) 102 % of control; (dose: 6.25 mg/kg/injection, schedule: Q01DX009 (ip), vehicle: Klucel (hydroxypropylcellulose) (HPC)) 103 % of control; (dose: 6.25 mg/kg/injection, schedule: Q04DX003 (ip), vehicle: Klucel (hydroxypropylcellulose) (HPC)) 97 % of control; (dose: 12.5 mg/kg/injection, schedule: Q01DX001 (ip), vehicle: Klucel (hydroxypropylcellulose) (HPC)) 98 % of control; (dose: 12.5 mg/kg/injection, schedule: Q01DX009 (ip), vehicle: Klucel (hydroxypropylcellulose) (HPC)) 101 % of control; (dose: 12.5 mg/kg/injection, schedule: Q04DX003 (ip), vehicle: Klucel (hydroxypropylcellulose) (HPC)) 97 % of control. The T/C runs as follows: under setting [4], 98 % of control; (dose: 25.0 mg/kg/injection, schedule: Q01DX009 (ip), vehicle: Klucel (hydroxypropylcellulose) (HPC)) 104 % of control; (dose: 25.0 mg/kg/injection, schedule: Q04DX003 (ip), vehicle: Klucel (hydroxypropylcellulose) (HPC)) 100 % of control.
As for `CC1(C)C2(C(N)=O)C(=O)NC(=O)C12C(=O)O` (centres undefined), the T/C under setting [5] was 92 % of control.
`CNC(=N)c1ccc(NC(=N)c2ccc(NC(=N)c3ccc(NC(=O)c4ccc(C(=N)NC)cc4)cc3)cc2)cc1`: the T/C reads like this: (dose: 3.75 mg/kg/injection, schedule: Q01DX015 (ip), vehicle: water) 104 % of control; (dose: 7.5 mg/kg/injection, schedule: Q01DX015 (ip), vehicle: water) 101 % of control; (dose: 15.0 mg/kg/injection, schedule: Q01DX015 (ip), vehicle: water) 108 % of control; (dose: 20.0 mg/kg/injection, schedule: Q01DX Z (ip), vehicle: water) 177 % of control; (dose: 30.0 mg/kg/injection, schedule: Q01DX015 (ip), vehicle: water) 176 % of control and 180 % of control; (dose: 50.0 mg/kg/injection, schedule: Q01DX015 (ip), vehicle: water) 97 % of control.
`CCOP(=O)(OCC)ON=C(Cl)Cl`: the T/C runs as follows: (dose: 0.78 mg/kg/injection, schedule: Q01DX009 (ip), vehicle: saline) 97 % of control; (dose: 0.78 mg/kg/injection, schedule: Q04DX002 (ip), vehicle: saline) 101 % of control; (dose: 1.56 mg/kg/injection, schedule: Q01DX009 (ip), vehicle: saline) 97 % of control; (dose: 1.56 mg/kg/injection, schedule: Q04DX002 (ip), vehicle: saline) 98 % of control; (dose: 3.12 mg/kg/injection, schedule: Q01DX009 (ip), vehicle: Klucel (hydroxypropylcellulose) (HPC)) 95 % of control; (dose: 3.12 mg/kg/injection, schedule: Q01DX009 (ip), vehicle: saline) 93 % of control. Also, the T/C reads like this: (dose: 3.12 mg/kg/injection, schedule: Q04DX002 (ip), vehicle: saline) 101 % of control and 92 % of control; (dose: 4.6 mg/kg/injection, schedule: Q01DX009 (ip), vehicle: Klucel (hydroxypropylcellulose) (HPC)) 105 % of control; (dose: 7.0 mg/kg/injection, schedule: Q01DX009 (ip), vehicle: Klucel (hydroxypropylcellulose) (HPC)) 96 % of control.
With `CC(N)(CO)C(=O)O` (centres undefined), the T/C runs as follows: (dose: 100.0 mg/kg/injection, schedule: Q01DX009 (ip), vehicle: saline) 100 % of control; (dose: 200.0 mg/kg/injection, schedule: Q01DX009 (ip), vehicle: saline) 105 % of control; (dose: 400.0 mg/kg/injection, schedule: Q01DX009 (ip), vehicle: saline) 107 % of control.
`N/N=C1\CC(=O)NC(=O)N1`: the T/C was 90 % of control (dose: 75.0 mg/kg/injection, schedule: Q01DX001 (ip), vehicle: saline) and 96 % of control (dose: 150.0 mg/kg/injection, schedule: Q01DX001 (ip), vehicle: saline).
On to `Cc1ccc([N+](=O)[O-])cc1NC(=O)OCC1CCCO1` (centres undefined), for which the T/C was 87 % of control under setting [6], 87 % of control under setting [7] and 97 % of control under setting [8].
Turning to `O=S1(=O)/C(=C\C2CCCCC2)c2c1c(-c1ccccc1)c1ccccc1c2-c1ccccc1`, the T/C was 86 % of control (dose: 50.0 mg/kg/injection, schedule: Q01DX001 (ip), vehicle: carboxymethylcellulose (CMC)); 92 % of control (dose: 200.0 mg/kg/injection, schedule: Q01DX001 (ip), vehicle: carboxymethylcellulose (CMC)); 89 % of control (dose: 400.0 mg/kg/injection, schedule: Q01DX001 (ip), vehicle: carboxymethylcellulose (CMC)).
Take `CC(C)(C)c1cc(/C=N/n2c(-c3ccccc3)nc3ccccc3c2=O)cc(C(C)(C)C)c1O`: the T/C by setting is: under setting [1], 89 % of control; under setting [9], 89 % of control and 91 % of control; under setting [6], 95 % of control; under setting [2], 89 % of control; under setting [10], 95 % of control and 91 % of control; under setting [7], 98 % of control. For the same compound, the T/C is, setting by setting: under setting [3], 93 % of control; under setting [8], 97 % of control and 100 % of control.
Regarding `CCOC(=O)C1Oc2ccccc2O1`, the T/C reads like this: under setting [11], 105 % of control; (dose: 100.0 mg/kg/injection, schedule: Q04DX002 (ip), vehicle: saline with Tween-80) 113 % of control; under setting [12], 99 % of control; under setting [5], 100 % of control; under setting [13], 101 % of control; (dose: 400.0 mg/kg/injection, schedule: Q04DX002 (ip), vehicle: saline with Tween-80) 97 % of control.
`OCCNC1c2ccccc2-c2ccccc21`: the T/C reads like this: (dose: 50.0 mg/kg/injection, schedule: Q01DX009 (ip), vehicle: Klucel (hydroxypropylcellulose) (HPC)) 100 % of control; under setting [9], 118 % of control; (dose: 100.0 mg/kg/injection, schedule: Q04DX003 (ip), vehicle: Klucel (hydroxypropylcellulose) (HPC)) 102 % of control; under setting [10], 99 % of control; (dose: 200.0 mg/kg/injection, schedule: Q04DX003 (ip), vehicle: Klucel (hydroxypropylcellulose) (HPC)) 107 % of control.
Take `CC1CCCC1=O` (centres undefined): the T/C runs as follows: under setting [14], 96 % of control; under setting [15], 93 % of control; (dose: 200.0 mg/kg/injection, schedule: Q01DX001 (ip), vehicle: saline) 93 % of control; (dose: 400.0 mg/kg/injection, schedule: Q01DX001 (ip), vehicle: saline) 93 % of control.
On to `Cc1ccc(NC(=O)Oc2cc(C)c(Cl)c(C)c2)cc1`, for which the T/C runs as follows: under setting [9], 94 % of control; under setting [10], 97 % of control; (dose: 400.0 mg/kg/injection, schedule: Q01DX009 (ip), vehicle: Klucel (hydroxypropylcellulose) (HPC)) 96 % of control.
Consider `CCC(CC)NC(CC)COC(=O)c1ccc(N)cc1` (centres undefined), for which the T/C by setting is: (dose: 75.0 mg/kg/injection, schedule: Q01DX001 (ip), vehicle: other) 97 % of control; (dose: 150.0 mg/kg/injection, schedule: Q01DX001 (ip), vehicle: other) 107 % of control.
For the compound `CC(N)C(=O)NC(C)C(=O)O` (centres undefined), the T/C is 97 % of control under setting [4]; 102 % of control (dose: 25.0 mg/kg/injection, schedule: Q01DX001 (ip), vehicle: saline); 102 % of control (dose: 25.0 mg/kg/injection, schedule: Q04DX002 (ip), vehicle: saline); 97 % of control (dose: 50.0 mg/kg/injection, schedule: Q01DX001 (ip), vehicle: Klucel (hydroxypropylcellulose) (HPC)); 97 % of control under setting [14]; 96 % of control (dose: 50.0 mg/kg/injection, schedule: Q04DX002 (ip), vehicle: saline). In addition, the T/C is, setting by setting: under setting [1], 97 % of control; under setting [15], 93 % of control; (dose: 100.0 mg/kg/injection, schedule: Q04DX002 (ip), vehicle: saline) 102 % of control.
As for `Cc1cc([N+](=O)[O-])ccc1NC(=O)Nc1ccccc1F`, the T/C under setting [11] is 102 % of control, the T/C under setting [12] was 86 % of control and the T/C under setting [13] is 96 % of control.
